# Target: AMPK
# Test: AMPK activation, enzyme-linked immunosorbent assay
# Assay type: biochemical
# Conditions: Table 2, AMPK activation, ELISA
row,SMILES,EC50 [µM]
1,"CC(C)(C)OC(=O)N1CCC(NC(=O)c2cc(OC3CCN(c4ccc(C(F)(F)F)cc4)CC3)ccn2)CC1 [Compound 12, tert-butyl 4-(4-(1-(4-(trifluoromethyl)phenyl)piperidin-4-yloxy)picolinamido) piperidine-1-carboxylate]",0.5 to 1
2,"O=C(NC1CCNCC1)c1ccnc(OC2CCN(c3ccc(C(F)(F)F)cc3)CC2)c1 [Compound 19, N-(piperidin-4-yl)-2-(1-(4-(trifluoromethyl)phenyl)piperidin-4-yloxy)isonicotinamide]",1 to 5
3,"COC(=O)c1ccc(CN2CCC(NC(=O)c3ccc(OC4CCN(c5ccc(C(F)(F)F)cc5)CC4)cn3)CC2)cc1 [Compound 8, methyl 4-((4-(5-(1-(4-(trifluoromethyl)phenyl)piperidin-4-yloxy)picolinamido)piperidin-1-yl)methyl)benzoate]",< 0.1
4,"O=C(NC1CCN(Cc2ccncc2)CC1)c1cccc(OC2CCN(c3ccc(C(F)(F)F)cc3)CC2)n1 [Compound 43, N-(1-(pyridin-4-ylmethyl)piperidin-4-yl)-6-(1-(4-(trifluoromethyl)phenyl)piperidin-4-yloxy)picolinamide]",1 to 5
5,"O=C(N[C@@H]1CCN(Cc2ccc(F)cc2)C1)c1ccc(OC2CCN(c3ccc(C(F)(F)F)cc3)CC2)cn1 [Compound 34, (R)-N-(1-(4-fluorobenzyl)pyrrolidin-3-yl)-5-(1-(4-(trifluoromethyl)phenyl)piperidin-4-yloxy)picolinamide]",0.5 to 1
6,"O=C(O)c1ccc(CN2CCC(NC(=O)c3ccc(OC4CCN(c5ccc(C(F)(F)F)cc5)CC4)nc3)CC2)cc1 [Compound 46, 4-((4-(6-(1-(4-(trifluoromethyl)phenyl)piperidin-4-yloxy)nicotinamido)piperidin-1-yl)methyl)benzoic acid]",1 to 5

# Same assay, conditions: Table 4, AMPK activation, ELISA
row,SMILES,EC50 [µM]
1,"N#Cc1ccccc1CN1CCC(NC(=O)c2cc3ccc(OC4CCN(c5ccc(OC(F)(F)F)cc5)CC4)cc3o2)CC1 [Compound 97, N-(1-(2-cyanobenzyl)piperidin-4-yl)-6-(1-(4-(trifluoromethoxy)phenyl)piperidin-4-yloxy)benzofuran-2-carboxamide]",< 0.1
2,"O=C(NC1CCN(Cc2cccnc2)CC1)c1cc2cc(OC3CCN(c4ccc(C(F)(F)F)cc4)CC3)ccc2o1 [Compound 101, N-(1-(pyridin-3-ylmethyl)piperidin-4-yl)-5-(1-(4-(trifluoromethyl)phenyl)piperidin-4-yloxy)benzofuran-2-carboxamide]",< 0.1
3,"O=C(NC1CCN(Cc2cccnc2)CC1)c1cc2ccc(OC3CCN(c4ccc(C(F)(F)F)cc4)CC3)cc2o1 [Compound 96, N-(1-(pyridin-3-ylmethyl)piperidin-4-yl)-6-(1-(4-(trifluoromethyl)phenyl)piperidin-4-yloxy)benzofuran-2-carboxamide]",< 0.1
4,"O=C(NC1CCN(Cc2ccc(F)cc2)CC1)c1cc2ccc(OC3CCN(c4ccc(C(F)(F)F)cc4)CC3)cc2o1 [Compound 91, N-(1-(4-fluorobenzyl)piperidin-4-yl)-6-(1-(4-(trifluoromethyl)phenyl)piperidin-4-yloxy)benzofuran-2-carboxamide]",> 50
5,"CN(C(=O)c1cc2cc(OC3CCN(c4ccc(C(F)(F)F)cc4)CC3)ccc2o1)C1CCN(C(=O)OC(C)(C)C)CC1 [Compound 102, tert-butyl 4-(N-methyl-5-(1-(4-(trifluoromethyl)phenyl)piperidin-4-yloxy)benzofuran-2-carboxamido)piperidine-1-carboxylate]",1 to 10
6,"O=C(NC1CCN(Cc2ccccc2)CC1)c1cc2cc(OC3CCN(Cc4cccc(C(F)(F)F)c4)CC3)ccc2o1 [Compound 73, N-(1-benzylpiperidin-4-yl)-5-(1-(3-(trifluoromethyl)benzyl)piperidin-4-yloxy)benzofuran-2-carboxamide]",0.5 to 1
7,"Cc1c(C(=O)NC2CCN(Cc3ccccc3C#N)CC2)oc2cc(OC3CCN(c4ccc(C(F)(F)F)cc4)CC3)ccc12 [Compound 67, N-(1-(2-cyanobenzyl)piperidin-4-yl)-3-methyl-6-(1-(4-(trifluoromethyl)phenyl)piperidin-4-yloxy)benzofuran-2-carboxamide]",< 0.1

# Same assay, conditions: Table 5, AMPK activation, ELISA
row,SMILES,EC50 [µM]
1,"N#Cc1ccc(CN2CCC(NC(=O)c3cc4ccc(OC5CCN(c6ccc(C(F)(F)F)cc6)CC5)cc4s3)CC2)cc1 [Compound 144, N-(1-(4-cyanobenzyl)piperidin-4-yl)-6-(1-(4-(trifluoromethyl)phenyl)piperidin-4-yloxy)benzo[b]thiophene-2-carboxamide]",< 0.1

# Same assay, conditions: Table 6, AMPK activation, ELISA
row,SMILES,EC50 [µM]
1,"N#Cc1ccc(CN2CCC(NC3CCc4cc(OC5CCN(c6ccc(C(F)(F)F)cc6)CC5)ccc43)CC2)cc1 (stereo not drawn) [Compound 160, 4-((4-(5-(1-(4-(trifluoromethyl)phenyl)piperidin-4-yloxy)-2,3-dihydro-1H-inden-1-ylamino)piperidin-1-yl)methyl)benzonitrile]",< 0.5
